Values quoted from earlier work in patent US9446139B2, “Polymer-based compositions and conjugates of HIV entry inhibitors” (Nektar Therapeutics, priority 2004, dated 2016).

Assays:
[1] = 90-mg single subcutaneous dose (N=12)

Substance: enfuvirtide
- mean elimination half life [1]: 3.8 ± 0.6 h
- mean±SD apparent clearance [1]: 0.413 ± 0.0683 mL/min/kg
- mean duration of each ISR (human, in vivo): around 7 days
- patients reporting at least one instance of painful or troublesome local injection site reactions (ISR) (subcutaneous injection two times a day): 98%
